Article PMC7104201 (iScience, 2020)

Biological target: CatB (Homo sapiens, UniProt P07858)
Type: biochemical
Conditions: pH 5

Substance: CA-074 methyl ester [CatB inhibitor]
- blocking of CatB-dependent cleavage of EBOV GP: effectively blocked
